Literature values, collected in article PMC9540525 (Cancer, 2022).

Experiments:
[1] = phase 1 dose-escalation study in R/R SCLC; cited from earlier work
[2] = phase 1 dose-escalation study in R/R SCLC; cited from earlier work; remark: listed apart in the source
[3] = first-in-human study; cited from earlier work

For `O=C(O)c1ccc(CN2CCC(CN[C@@H]3C[C@H]3c3ccccc3)CC2)cc1` [GSK2879552], the pharmacokinetic properties [1] is listed as “favorable pharmacokinetic properties were demonstrated” and the “rate of AEs” value [2] is listed as “the rate of AEs, especially serious AEs, was high”.
In the case of `N[C@H]1CC[C@H](N[C@@H]2C[C@H]2c2ccccc2)CC1` [iadademstat], the toxicities [3] is listed as “caused toxicities, including thrombocytopenia, anemia, and febrile neutropenia, as well as deaths possibly related to iadademstat”.
